Entries after “also recorded” stand apart in the source; their conditions may differ.
Molecular target: T1, pCdk2(ES)/cyclin A holoenzyme (Homo sapiens, UniProt P24941, C177A/F80C)
T1 construct: GST (N, cleaved yes); made in house; host or cells: E. coli Tuner(DE3); Cdk2 phosphorylated in vitro with GST-CAK1 (S. cerevisiae)
Assay: spectrophotometric coupled (LDH/PK) kinase assay after labelling and dialysis
Type: biochemical
Details: treatment with 0.5 mM acrylamide, then dialysis to remove ligand
Text: Next we undertook biochemical validation of the electrophile sensitive approach using a spectrophotometric kinase assay. In this experiment the activity of Cdk2 is activated both by phosphorylation and interaction with cyclin A. The catalytic turnover of ATP is coupled to the oxidation of NADH by lactate dehydrogenase (LDH) and pyruvate kinase (PK), which is monitored by absorbance at 340 nm.
H. Intact-protein mass spectrometry
Protein-mass data were obtained on a Waters micromass LC-TOF mass spectrometer in positive ion mode using electrospray ionization. Samples were chromatographed using an Acquity UPLC protein BEH C4 column (2.1 mm × 50 mm, 2.7 µm) with a flow rate of 30 µL/min. The injection volume was 5 µL of protein solution (5 µM) in 30 mM ammonium bicarbonate buffer con-taining 0.5% formic acid and 20% MeOH. The gradient used was 100% mobile phase A (0.1% formic acid in water/MeOH (19:1)) ramping linearly to 90% mobile phase B (0.1% formic acid in MeOH) over 5 minutes. […]
4EK3) and the model was iteratively refined using Phenix.Refine[13] with manual modelling and adjustments carried out in COOT[14]. […] Electron density maps were calculated using FFT[17] and figures were prepared using PyMol (Schrö dinger). […]

SMILES	inhibition of kinase activity
C=CC(=O)N1CCCc2cc(C(=O)OC)ccc21 [compound 1]	complete irreversible inhbition; also recorded: complete inhibition
C=CC(=O)Nc1ccc(-c2ncccn2)cc1 [S1]	complete irreversible inhbition

From publication PMC7754465, “Multiparameter Kinetic Analysis for Covalent Fragment Optimization by Using Quantitative Irreversible Tethering (qIT)” (Chembiochem, 2020)
